Data from publication PMC6278399, “Synthesis and Anticancer Activity Evaluation of Hydrolyzed Derivatives of Panaxnotoginseng Saponins” (Molecules, 2018).

Legend:
[1] = test system: gastric cancer cells (BGC-823); assay: MTT cytotoxicity assay, BGC-823; type: cell-based, human; details: Homo sapiens; BGC-823, MTT, 48 h
Text: (§1) In the study, five cancer cell lines (human colon cancer cells (HT-29), gastric cancer cells (BGC-823), cervical cancer cells (Hela), human breast cancer cells (MCF-7), and human lung cancer cells A549)), and two normal cell lines (human gastric epithelial cells (GES-1) and human ovarian epithelial cells (IOSE144)) were used for the evaluation of biological activity. IOSE144 cells were donated by Professor Piao Huri of Yanbian University, all other cells were purchased from the American Type Culture Collection (ATCC, Manassas, VA, USA). Cells were cultured in Dulbecco’s Modified Eagle’s Medium (DMEM), supplemented with 10% heat-inactivated fetal bovine serum (FBS), 1% 100 μg/mL penicillin and 100 μg/mL streptomycin in a humidified atmosphere containing 5% CO2 at 37 °C. Cell viability was measured using the MTT assay. Cells were seeded in 96 well microtiter plates in a volume of 100 μL medium. All compounds tested were dissolved and further diluted in DMSO. After overnight incubation, cells were treated with different test concentrations or carrier solvents alone in a final volume of 100 μL with five replicates each. […] Cells were treated with compound (80, 40, 20, 10, 5 μM) for 48 h. Then, 10 μL of MTT (5 mg/mL) was added to each well and the cells were incubated at 37 °C in the dark for 4 h. Supernatants were removed and formazan crystals were dissolved in DMSO (100 μL/well). The solution was agitated for 10 min, and the absorbance was measured at 490 nm using microplate reader (imark, BIO-RAD, Hercules, CA, USA) to calculate the 50% inhibitory concentration (IC50). Ginsenoside-Rg3, panaxadiol sapogenin (PD), AD-2 (25-OH-PPD) and AD-1 (25-OCH3-PPD) were used as standard reference compounds.

[2] = test system: human colon cancer cells (HT-29); assay: MTT cytotoxicity assay, HT-29; type: cell-based; details: Homo sapiens; HT-29, MTT, 48 h
Text: as §1

[3] = test system: human lung cancer cells A549; assay: MTT cytotoxicity assay, A549; type: cell-based; details: Homo sapiens, 48 h
Text: as §1

[4] = MTT cytotoxicity assay, GES-1 normal cells; type: cell-based, human; details: human
Text: as §1

[5] = test system: human breast cancer cells (MCF-7); assay: MTT cytotoxicity assay, MCF-7; type: cell-based; details: Homo sapiens, MCF7; MCF-7, MTT, 48 h
Text: as §1

[6] = test system: cervical cancer cells (Hela); assay: MTT cytotoxicity assay, Hela; type: cell-based, human; details: Homo sapiens, 48 h
Text: as §1

[7] = MTT cytotoxicity assay, IOSE144 normal cells; type: cell-based, human; details: human
Text: as §1

[8] = GES-1 gastric epithelial cells (normal cell line), GES-1 normal cells, MTT, 48 h, read-out: IC50
[9] = IOSE144 ovarian epithelial cells (normal cell line), IOSE144 normal cells, MTT, 48 h, read-out: IC50

Compound | IC50 [1] [µM] | IC50 [2] [µM] | IC50 [3] [µM] | IC50 at 48 h [4] [µM] | IC50 [5] [µM] | IC50 [6] [µM] | melting point [°C] | IC50 at 48 h [7] [µM] | IC50 at 48 h [4, 8] [µM] | IC50 at 48 h [7, 9] [µM]
CC(C)(CCCC(C)(O)C1CCC2(C)C1C(O)CC1C3(C)CCC(O)C(C)(C)C3CCC12C)OC(=O)c1ccccc1O [Compound 8a, 20(R)-Dammarane-3β,12β,20-triol-25-yl-2′-hydroxybenzoate] | > 100 | > 100 | 47.1 ± 0.59 | > 100 | 50.7 ± 1.34 | > 100 | 223 to 225 | > 100 |  | 
CC1(C)CCC[C@](C)(C2CC[C@]3(C)C2[C@H](OC(=O)c2ccccc2O)CC2[C@@]4(C)CC[C@H](O)C(C)(C)C4CC[C@]23C)O1 (stereo partly drawn) [Compound 12a, 20(R)-Pananxadiol-3β-hydroxy-12β-yl-2′-hydroxybenzoate] | > 100 | > 100 | 50.2 ± 0.94 | > 100 | 60.1 ± 2.45 | > 100 | 248 to 250 | > 100 |  | 
CC(=O)Oc1ccccc1C(=O)OC1CC2C3(C)CCC(O)C(C)(C)C3CCC2(C)C2(C)CCC(C3(C)CCCC(C)(C)O3)C12 [Compound 5b, 20(R)-Pananxadiol-3β-hydroxy-12β-yl-2′-acetylbenzoate] | 26.24 ± 0.02 | 20.1 ± 0.74 | 14.1 ± 0.52 | > 100 | 24.36 ± 0.15 | 18.65 ± 0.13 | 226 to 228 | > 100 |  | 
CC1(C)CCC[C@](C)([C@H]2CC[C@]3(C)[C@@H]2[C@H](O)C[C@@H]2[C@@]4(C)CC[C@H](O)C(C)(C)[C@@H]4CC[C@]23C)O1 [PD, panaxadiol, reference compound] | 80.13 ± 0.36 | 73.4 ± 1.84 | 43.1 ± 1.05 |  | 62 ± 1.63 | 72.15 ± 0.52 |  |  | > 100 | > 100
CC(=O)Oc1ccccc1C(=O)O [Acetyl-salicylic acid, reference compound] | 87.67 ± 0.78 | 70.26 ± 0.38 | 90.5 ± 2.13 |  | 57.1 ± 1.7 | > 100 |  |  | > 100 | > 100
CC(C)(O)CCCC(C)(O)C1CCC2(C)C1C(OC(=O)c1ccccc1O)CC1C3(C)CCC(O)C(C)(C)C3CCC12C [Compound 5a, 20(R)-Dammarane-3β,20,25-triol-12β-yl-2′-hydroxybenzoate] | 60.5 ± 1.11 | 18.4 ± 0.47 | 22.5 ± 0.46 | > 100 | 18.5 ± 0.23 | 21.6 ± 1.08 | 258 to 260 | > 100 |  | 
COC(C)(C)CCCC(C)(O)C1CCC2(C)C1C(O)CC1C3(C)CCC(OC(=O)c4ccccc4O)C(C)(C)C3CCC12C [Compound 4a, 20(R)-25-Methoxydammarane-12β,20-diol-3β-yl-2′-hydroxybenzoate] | 13.2 ± 0.18 | 50.6 ± 1.03 | 35.6 ± 0.56 | > 100 | 11.1 ± 0.35 | 19.26 ± 0.14 | 246 to 248 | > 100 |  | 
CC(C)(CCCC(C)(O)C1CCC2(C)C1C(O)CC1C3(C)CCC(OC(=O)c4ccccc4O)C(C)(C)C3CCC12C)OC(=O)c1ccccc1O [Compound 6a, 20(R)-Dammarane-12β, 20-diol-3β, 25-di-yl-2′-hydroxybenzoate] | > 100 | > 100 | 19.4 ± 0.59 | > 100 | > 100 | 20.4 ± 0.36 | 219 to 221 | > 100 |  | 
CC(=O)Oc1ccccc1C(=O)OC1CCC2(C)C(CCC3(C)C2CC(OC(C)=O)C2C(C(C)(O)CCCC(C)(C)O)CCC23C)C1(C)C [Compound 7b, 20(R)-Dammarane-20,25-diol-12β-o-acetyl-3β-yl-2′-acetylbenzoate] | 18.4 ± 0.35 | 28.6 ± 0.65 | 28.4 ± 0.95 | > 100 | 22.6 ± 1.02 | 19.53 ± 0.19 | 268 to 270 | > 100 |  | 
CC(C)(O)CCCC(C)(O)C1CCC2(C)C1C(O)CC1C3(C)CCC(OC(=O)c4ccccc4O)C(C)(C)C3CCC12C [Compound 9a, 20(R)-Dammarane-12β,20,25-triol-3β-yl-2′-hydroxybenzoate] | 26.52 ± 0.26 | 11.5 ± 0.23 | 35.9 ± 0.41 | > 100 | 50.44 ± 0.11 | 37.3 ± 0.39 | 295 to 297 | > 100 |  | 
CC1(C)CCC[C@](C)(C2CC[C@]3(C)C2[C@H](O)CC2[C@@]4(C)CC[C@H](OC(=O)c5ccccc5O)C(C)(C)C4CC[C@]23C)O1 (stereo partly drawn) [Compound 11a, 20(R)-Pananxadiol-12β-hydroxy-3β-yl-2′-hydroxybenzoate] | 41.9 ± 0.43 | 26.5 ± 0.56 | 23.8 ± 1.36 | > 100 | 11.5 ± 1.47 | > 100 | 222 to 224 | > 100 |  | 
O=C(O)c1ccccc1O [Salicylic acid, reference compound] | > 100 | 83.2 ± 1.65 | > 100 |  | > 100 | > 100 |  |  | > 100 | > 100
CC(=O)OC1CC2C3(C)CCC(OC(=O)c4ccccc4O)C(C)(C)C3CCC2(C)C2(C)CCC(C(C)(O)CCCC(C)(C)O)C12 [Compound 6b, 20(R)-Dammarane-20,25-diol-12β-o-acetyl-3β-yl-2′-hydroxybenzoate] | 40.6 ± 1.05 | 15.2 ± 0.41 | > 100 | > 100 | > 100 | 48.3 ± 2.16 | 278 to 280 | > 100 |  | 
CC1(C)CCC[C@](C)(C2CC[C@]3(C)C2[C@H](OC(=O)c2ccccc2O)CC2[C@@]4(C)CC[C@H](OC(=O)c5ccccc5O)C(C)(C)C4CC[C@]23C)O1 (stereo partly drawn) [Compound 10a, 20(R)-Pananxadiol-3β,12β-di-yl-2′-hydroxybenzoate] | > 100 | 30.25 ± 0.02 | 29.5 ± 0.61 | > 100 | 41.4 ± 0.48 | > 100 | 232 to 234 | > 100 |  | 
